Test results as given in patent publication US5169841A, “Renin inhibitors” (Hoechst Aktiengesellschaft, priority 1987, dated 1992).

Target: T1, human plasma renin (Homo sapiens, UniProt P00797)
T1 construct: from tissue; host or cells: human EDTA plasma from volunteer subjects
T1 sequence (P00797 67-406): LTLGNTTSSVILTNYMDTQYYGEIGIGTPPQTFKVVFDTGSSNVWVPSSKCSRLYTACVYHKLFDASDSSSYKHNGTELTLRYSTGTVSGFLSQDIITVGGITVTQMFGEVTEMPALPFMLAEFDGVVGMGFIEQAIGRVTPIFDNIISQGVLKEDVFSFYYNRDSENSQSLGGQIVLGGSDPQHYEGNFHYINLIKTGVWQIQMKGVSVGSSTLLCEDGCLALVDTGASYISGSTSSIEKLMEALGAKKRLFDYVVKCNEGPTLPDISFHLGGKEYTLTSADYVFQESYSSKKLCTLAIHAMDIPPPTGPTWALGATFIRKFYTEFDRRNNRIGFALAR
Assay: Inhibition of angiotensin I formation in human plasma (Renin-Maia radioimmunoassay)
Type: biochemical
Conditions: 37° C., 1 hour, % residual plasma renin activity by angiotensin I RIA
Protocol: The activity of renin inhibitors can be checked by in vitro tests. These entail the decrease in the formation of angiotensin I being measured in various systems (human plasma, purified human renin).
For example human plasma which contains both renin and angiotensinogen is incubated at 37° C. with the compound to be tested. During this, angiotensin I is liberated from angiotensinogen under the action of renin and can subsequently be measured using a commercially available radioimmunoassay. This liberation of angiotensin is inhibited by renin inhibitors.
The blood is obtained from volunteer subjects (about 0.5 litre per person; Bluko sampler from ASID Bonz and Sohn, Unterschleissheim) and is collected in partially evacuated bottles while cooling in ice. Coagulation is prevented by addition of EDTA (final concentration 10 mM). After centrifugation, (HS 4 Rotor (Sorvall), 3500 rpm, 0°-4° C., 15 min; repeat if necessary), the plasma is carefully removed with a pipette and frozen in suitable portions at -30° C. Only plasma with sufficiently high renin activity are used for the test. Plasma with low renin activity are activated by cold treatment (-4° C., 3 days (prorenin→renin).
Angiotensin I is determined using the Renin-Maia® Kit (Serono Diagnostics S. A., Coinsins, Switzerland). The plasma is incubated in accordance with the instructions given therein:
1000 μl of plasma (defrozen at 0-4° C.)
100 μl of phosphate buffer (ph 7.4)
10 μl of 0.1% Genapol PFIC
12 μl of DMSO or test product
The test products are generally dissolved 10^-2 M in 100% dimethylsulfoxide (DMSO) and diluted appropriately with DMSO; the incubation mixture contains not more than 1% DMSO.
The mixtures are mixed up in ice and placed in a water bath (37° C.) for 1 hour for the incubation. 6 samples in total (each of 100 μl) are taken from an additional mixture without inhibitor and without further incubation for the determination of the initial angiotensin I content of the plasma used.
The concentrations of the test products are selected such that the 10-90% range of enzyme inhibition is approximately covered (at least five concentrations). At the end of the incubation time, three 100 μl samples from each mixture are frozen in precooled Eppendorf tubes on dry ice and stored at about -25° C. for the determination of angiotensin I (means from three individual samples).
The instructions for use of the RIA Kit (Rennin-Maia® Kit, Serono Diagnostics S. A., Coinsins, Switzerland) are followed exactly.
The calibration plot embraces the range from 0.2 to 25.0 ng of angiotensin I per ml. The basic angiotensin I content of the plasma is subtracted from all the measured values. The plasma renin activity (PRA) is reported as ng of Ang I/ml x hour. PRA values in the presence of the test substances are related to a mixture without inhibitor (=100%) and reported as % residual activity. The IC50 value is read off from the plot of % residual activity against the concentration (M) of the test product (logarithmic scale).

| Compound | IC50 [µM] |
| --- | --- |
| CCC[C@H](NC(=O)[C@H](Cc1ccccc1)NC(=O)CC(C)C)C(=O)NC(CC1CCCCC1)B1OC(C)(C)C(C)(C)O1 (stereo partly drawn) [Example 1, Iva-Phe-Nva-[cyclohexylmethyl,(4,4,5,5-tetramethyl-1,3,2-dioxaborolane-2-yl)]methylamide] | 0.42 |
| CCC[C@H](NC(=O)[C@H](Cc1ccccc1)NC(=O)CC(C)C)C(=O)NC(CC1CCC(C)CC1)B1OC(C)(C)C(C)(C)O1 (stereo partly drawn) [Example 15, Iva-Phe-Nva-[(4-methylcyclohexyl)methyl,(4,4,5,5-tetramethyl-1,3,2-dioxaborolane-2-yl)]methylamide] | 2.8 |
| CCC[C@H](NC(=O)C(Cc1cccc2ccccc12)CS(=O)(=O)C(C)(C)C)C(=O)NC(CC(CC)CC)B1OC(C)(C)C(C)(C)O1 (some centres unmarked) [Example 51, [3-t-Butylsulfonyl,2-(1-naphthylmethyl)]propionyl-Nva-[3-ethyl,1-(4,4,5,5-tetramethyl-1,3,2-dioxaborolane-2-yl)]-pentylamide] | 1.8 |
| CCC[C@H](NC(=O)C(Cc1cccc2ccccc12)CS(=O)(=O)C(C)(C)C)C(=O)NC(CC1CCCC1)B1OC(C)(C)C(C)(C)O1 (some centres unmarked) [Example 50] | 1.5 |
| CC1(C)OB(C(CC2CCCCC2)NC(=O)[C@H](CC(N)=O)NC(=O)C(Cc2cccs2)CS(=O)(=O)C(C)(C)C)OC1(C)C (some centres unmarked) [Example 54, (3-t-Butylsulfonyl,2-(2-thienylmethyl)]propionyl-Asn-[cyclohexylmethyl,(4,4,5,5-tetramethyl-1,3,2-dioxaborolane-2-yl)]methylamide] | 0.9 |
| CCC[C@H](NC(=O)C(Cc1cccs1)CS(=O)(=O)C(C)(C)C)C(=O)NC(CC1CCCCCC1)B1OC(C)(C)C(C)(C)O1 (some centres unmarked) [Example 41, [3-t-Butylsulfonyl,2-(2-thienylmethyl)]propionyl-Nva-[cycloheptylmethyl,(4,4,5,5-tetramethyl-1,3,2-dioxaborolane-2-yl)]methylamide] | 1.5 |
| CCC[C@H](NC(=O)C(Cc1ccccc1)CS(=O)(=O)C(C)(C)C)C(=O)NC(CC(CC)CC)B1OC(C)(C)C(C)(C)O1 (some centres unmarked) [Example 52, (2-Benzyl,3-t-butylsulfonyl)propionyl-Nvu-[3-ethyl,1-(4,4,5,5-tetramethyl-1,3,2-dioxaborolane-2-yl)]pentylamide] | 2.8 |
| CCC[C@H](NC(=O)C(Cc1ccccc1)CS(=O)(=O)C(C)(C)C)C(=O)NC(CC1CCCC1)B1OC(C)(C)C(C)(C)O1 (some centres unmarked) [Example 44, (2-Benzyl,3-t-butylsulfonyl)propionyl-Nva-[cyclopentylmethyl,(4,4,5,5-tetramethyl-1,3,2-dioxaborolane-2-yl)]-methylamide] | 2.4 |
| CCC[C@H](NC(=O)C(Cc1ccccc1)CS(=O)(=O)C(C)(C)C)C(=O)NC(CC1CCCCC1)B1OC(C)(C)C(C)(C)O1 (some centres unmarked) [Example 36, (2-Benzyl,3-t-butylsulfonyl)propionyl-Nva-[cyclohexylmethyl,(4,4,5,5-tetramethyl-1,3,2-dioxaborolane-2-yl)]methylamide] | 0.62 |
| CC(C)CC(=O)N[C@@H](Cc1ccccc1)C(=O)N[C@@H](Cc1c[nH]cn1)C(=O)NC(CC1CCCCCCC1)B1OC(C)(C)C(C)(C)O1 (stereo partly drawn) [Example 18, Iva-Phe-His-[cycloctylmethyl,(4,4,5,5-tetramethyl-1,3,2-dioxaborolane-2-yl)]methylamide] | 9 |
| CC(C)CC(=O)N[C@@H](Cc1ccccc1)C(=O)N[C@@H](Cc1c[nH]cn1)C(=O)NC(CC1CCCCCC1)B1OC(C)(C)C(C)(C)O1 (stereo partly drawn) [Example 19, Iva-Phe-His-[cycloheptylmethyl,(4,4,5,5-tetramethyl-1,3,2-dioxaborolane-2-yl)]methylamide] | 8 |
| CCC[C@H](NC(=O)C(Cc1cccs1)CS(=O)(=O)C(C)(C)C)C(=O)NC(CC1CCCCC1)B1OC(C)(C)C(C)(C)O1 (some centres unmarked) [Example 35, [3-t-Butylsulfonyl,2-(2-thienylmethyl)]propionyl-Nva-[cyclohexylmethyl,(4,4,5,5-tetramethyl-1,3,2-dioxaborolane-2-yl)]methylamide] | 0.28 |
| CC(C)CC(=O)N[C@@H](Cc1cccs1)C(=O)N[C@@H](Cc1c[nH]cn1)C(=O)NC(CC1CCCCC1)B1OC(C)(C)C(C)(C)O1 (stereo partly drawn) [Example 4, Iva-Thi-His-[cyclohexylmethyl,(4,4,5,5-tetramethyl-1,3,2-dioxaborolane-2-yl)]methylamide] | 0.45 |
| CC(C)CC(=O)N[C@@H](Cc1ccccc1)C(=O)N[C@@H](Cc1c[nH]cn1)C(=O)NC(CC1CCCCC1)B1OC(C)(C)C(C)(C)O1 (stereo partly drawn) [Example 3, Iva-Phe-His-[cyclohexylmethyl,(4,4,5,5-tetramethyl-1,3,2-dioxaborolane-2-yl)]methylamide] | 2 |
| CCC[C@H](NC(=O)[C@H](Cc1ccccc1)NC(=O)CC(C)C)C(=O)NC(CC1CCCCCC1)B1OC(C)(C)C(C)(C)O1 (some centres unmarked) [Example 16] | 3 |
| CC1(C)OB(C(CC2CCCCCC2)NC(=O)[C@H](Cc2cccs2)NC(=O)C(Cc2cccs2)CS(=O)(=O)C(C)(C)C)OC1(C)C (some centres unmarked) [Example 40, [3-t-Butylsulfonyl,2-(2-thienylmethyl)]propionyl-thi[cycloheptylmethyl,(4,4,5,5-tetramethyl-1,3,2-dioxaborolane-2-yl)]methylamide] | 3.6 |
| CCC[C@H](NC(=O)[C@H](Cc1ccccc1)NC(=O)CC(C)C)C(=O)NC(CC1CCCCC1)B(O)O (stereo partly drawn) [Example 5, Iva-Phe-Nva-(cyclohexylmethyl,dihydroxyboryl)methylamide] | 0.55 |
| CC1(C)OB(C(CC2CCCCC2)NC(=O)[C@H](Cc2cccs2)NC(=O)C(Cc2cccs2)CS(=O)(=O)C(C)(C)C)OC1(C)C (some centres unmarked) [Example 43, [3-t-Butylsulfonyl,2-(2-thienylmethyl)]propionyl-Thi-[cyclohexylmethyl,(4,4,5,5-tetramethyl-1,3,2-dioxaborolane-2-yl)]methylamide] | 0.55 |
| CC(C)CC(=O)N[C@@H](Cc1ccccc1)C(=O)N[C@@H](Cc1cccs1)C(=O)NC(CC1CCCCC1)B1OC(C)(C)C(C)(C)O1 (stereo partly drawn) [Example 7, Iva-Phe-Thi-[cyclohexylmethyl,(4,4,5,5-tetramethyl-1,3,2-dioxaborolane-2-yl)]methylamide] | 0.67 |
| CCCC[C@H](NC(=O)[C@H](Cc1ccccc1)NC(=O)CC(C)C)C(=O)NC(CC1CCCCC1)B1OC(C)(C)C(C)(C)O1 (stereo partly drawn) [Example 2, Iva-Phe-Nle-[cyclohexylmethyl,(4,4,5,5-tetramethyl-1,3,2-dioxaborolane-2-yl)]methylamide] | 1 |
| CC(C)[C@H](NC(=O)C(Cc1ccccc1)CS(=O)(=O)C(C)(C)C)C(=O)NC(CC1CCCCC1)B1OC(C)(C)C(C)(C)O1 (some centres unmarked) [Example 39, (2-Benzyl,3-t-butylsulfonyl)propionyl-Val-[cyclohexylmethyl,(4,4,5,5-tetramethyl-1,3,2-dioxaborolane-2yl)]-methylamide] | 2.1 |
| CCC[C@H](NC(=O)[C@H](Cc1ccccc1)NC(=O)CC(C)C)C(=O)NC(CC1CCCCC1)B1OC2CC3CC(C3(C)C)C2(C)O1 (single isomer, unassigned) [Example 13, Iva-Phe-Nva-[cyclohexylmethyl, (-)-pinanedioxyboryl]-methylamide] | 2.4 |
| CCC[C@H](NC(=O)C(Cc1cccc2ccccc12)CS(=O)(=O)C(C)(C)C)C(=O)NC(CC(C)C)B1OC(C)(C)C(C)(C)O1 (some centres unmarked) [Example 42, [3-t-Butylsulfonyl,2-(1-naphthylmethyl)]propionyl-Nva-[3-methyl,1-(4,4,5,5-tetramethyl-1,3,2-dioxaborolane-2-yl)]butylamide] | 0.95 |
